The values below come from patent US20070155707A1 (Kadmus Pharmaceuticals, Inc., priority 2005, published 2007).

The test system of data set [1] is FAAH. Conditions: Kathuria 2003; Mor 2004; WO 2004/033422; cited from earlier work.
Data set [2] deals with T1, fatty acid amide hydrolase (FAAH) (Homo sapiens, UniProt O00519).
T1 construct: 25 μL of human liver microsomes (31.3 μg); from tissue; host or cells: human liver microsomes
T1 sequence (O00519 1-579): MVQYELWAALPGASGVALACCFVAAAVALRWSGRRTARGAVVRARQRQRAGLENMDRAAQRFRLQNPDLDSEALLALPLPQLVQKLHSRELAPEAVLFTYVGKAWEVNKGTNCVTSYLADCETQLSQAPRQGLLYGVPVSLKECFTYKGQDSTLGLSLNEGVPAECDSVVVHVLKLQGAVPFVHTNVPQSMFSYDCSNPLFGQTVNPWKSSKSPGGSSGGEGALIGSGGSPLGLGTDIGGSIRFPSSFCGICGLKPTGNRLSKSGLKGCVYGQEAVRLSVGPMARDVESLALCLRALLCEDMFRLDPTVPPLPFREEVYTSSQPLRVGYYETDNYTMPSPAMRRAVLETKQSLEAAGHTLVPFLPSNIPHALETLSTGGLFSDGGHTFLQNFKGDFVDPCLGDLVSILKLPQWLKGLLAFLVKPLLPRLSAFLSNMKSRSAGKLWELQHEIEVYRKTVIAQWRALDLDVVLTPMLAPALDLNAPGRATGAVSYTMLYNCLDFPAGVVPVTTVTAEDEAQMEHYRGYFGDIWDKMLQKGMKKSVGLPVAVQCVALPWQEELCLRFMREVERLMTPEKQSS
Briefly: FAAH LC-MS/MS screening assay, IC50 determination (anandamide hydrolysis by human liver microsomes). Type of data set: biochemical. Conditions: inhibition of FAAH activity. As to the method:
For determining IC50 values for candidate FAAH inhibitor compounds, the above method is used with an adjusted FAAH inhibitor concentration. In the IC50 assay, the FAAH inhibitor is added at a concentration range of approximately 3 μM to 0.03 nM. The final calculation of IC50 is determined by first transforming the concentrations by “X=log(X)” and then analyzing the data with a sigmoidal dose-response curve (no constraints) using GraphPad Prism version 4.00 for Windows (GraphPad Software, San Diego Calif. USA, www.graphpad.com).
Background: Microsomes from liver hold many membrane-bound enzymes, among them those of drug oxidation.

Data set [3] is described as follows: Determination of pharmacokinetics in rats following oral administration (plasma and brain). The format is in vivo, rat. Conditions: for AUC / Cmax: rat, plasma; for AUC / Cmax / Brain AUC / Brain Cmax: 10 mg/kg oral gavage, solution. The procedure:
Potential FAAH inhibitors are formulated for oral (p.o.), intraperitoneal (i.p.) or intravenous (i.v.) delivery to rats. Formulated compounds are administered and the animals were sacrificed at pre-determined time points post dose. At sacrifice, blood samples are collected into EDTA plasma tubes and whole brains were snap frozen in liquid nitrogen. EDTA plasma was isolated from blood samples after centrifugation. Brain and plasma samples are stored at −80° C. prior to analysis. All samples (brain and plasma) are analyzed for the concentrations of test compound (FAAH inhibitor), metabolites of the test compound and endogenous fatty acid ethanolamide levels (including anandamide, oleoylethanolamide, and palmitoylethanolamide) by LC-MS/MS. Levels of these compounds are compared across time points to determine pharmacokinetic properties of the test compounds and partial pharmacological effects of inhibiting FAAH activity (including changes of fatty acid ethanolamide levels).
The pharmacokinetic properties of compounds provided herein were assessed in rats following oral administration as a solution. […] The solution of the test compound was administered to rats at a dose of 10 mg/kg via oral gavage.

One may read the IC50 as the midpoint of a concentration-inhibition curve. Low readings indicate greater potency in that assay, high ones weaker potency in that assay. The AUC is the area under the concentration-time curve, a measure of exposure. High values mean more exposure, low ones less exposure. Usually Cmax stands for the highest concentration seen after dosing.

Bounds are passed on as bounds.

Take `NC(=O)c1cccc(-c2cccc(OC(=O)NC3CCCCC3)c2)c1`: the “Inhibition of FAAH activity (in words)” value in data set [1] was “potent and selective inhibitors of FAAH activity”.

On to `O=C(NCC1CCCCC1)Oc1cccc(C(=O)O)c1` [Compound 2, 3-(Cyclohexylmethylcarbamoyloxy)benzoic acid], for which the IC50 in data set [2] was below 0.1 µM. Moreover, in data set [3], the AUC is 1700 ng·h/mL and the concentration peaked (Cmax) at 1250 ng/mL.

`O=C(NCC1CCCCC1)Oc1ccc(C(=O)O)cc1` [Compound 4, 4-(Cyclohexylmethylcarbamoyloxy)benzoic acid] showed an IC50 in data set [2] below 0.1 µM. Also, in data set [3], the “Brain AUC” value is 483 ng·h/g, the “Brain Cmax” value amounted to 475 ng/g, the AUC turned out to be 8840 ng·h/mL and the Cmax amounted to 7720 ng/mL. In addition, the “Crossing of the blood brain barrier” value in data set [3] (10 mg/kg oral, conclusion from Table 2) is on record as “does not substantially cross the blood brain barrier”.

As for `O=C(O)Cc1cccc(OC(=O)NCC2CCCCC2)c1` [Compound 7], in data set [2], the 50% inhibitory concentration (IC50) was below 0.1 µM.

Regarding `O=C(NCC1CCCCC1)Oc1cccc(-c2nnn[nH]2)c1` [Compound 11, 3-(1H-Tetrazol-5-yl)phenyl cyclohexylmethylcarbamate], the IC50 in data set [2] is below 0.1 µM.

In the case of `NC(=O)c1cccc(-c2cccc(OC(=O)NC3CCCCC3)c2)c1` [KDS-4103, reference compound], in data set [3], the “Brain AUC” value is 9,737 ng * hr/g, the “Brain Cmax” value is on record as 4,584 ng/g, the AUC was determined as 6730 ng·h/mL and the Cmax stood at 3160 ng/mL.
